Experimental data as given in article PMC9532703, “A novel small molecule RK-019 inhibits FGFR2-amplification gastric cancer cell proliferation and induces apoptosis in vitro and in vivo” (Frontiers in Pharmacology, 2022).
Where “and” joins values, the source holds several entries; their conditions need not be identical. Equal entries are not always repeated.

Tests used:
CK1(y) = experiment: Kinase selectivity panel; type: biochemical, yeast; conditions: read-out: Inhibition(%) @ 1 µM RK-019
Procedure: (§1) Median-inhibitory concentration (IC50) and inhibition ratio of kinases by RK-019 was assessed by Eurofins Discovery Services (Dundee, United Kingdom) using the ATP-site competition binding assay in vitro. Firstly, gradient concentration of RK-019 against FGFRs, including FGFR1, FGFR2, FGFR3, and FGFR4, were tested. IC50 value was calculate by the GraphPad Prism software (v8.4.3, GraphPad Software, California, United States). Then, to measure the selectivity prolife of RK-019, a panel of 422 recombinant human kinases was screened at a concentration of 1 µM RK-019. Kinase MAP was drawn by webtools from Cell Signaling Technology, Inc. (www.cellsignal.com).

KATO III cells = experiment: Apoptosis analysis by flow cytometry (Annexin V-PE/7-AAD); type: cell-based; conditions: 72 h
Procedure: (§2) Cell cycle and apoptosis assay were both measured by flow cytometry (FCM). The data were analyzed by the NovoExpress software (v1.4.0, Agilent, Santa Clara, CA, United States). For cell cycle assay, the cells were treated by different concentrations of RK-019 for 24 h, then were harvested and washed twice with cold phosphate buffered solution (PBS), followed by fixed with 75% ethanol overnight. Before test, the cells were washed twice with cold PBS and stained with PI stanning solution using cell cycle detecting kit (KGA512, KeyGEN, Nanjing, China), and then measured by FCM. […]

SNU-16 cells = experiment: as above; type: cell-based; conditions: SNU-16, 72 h
Procedure: as §2

FGFR3 = target: T1, FGFR3 (Homo sapiens, UniProt P22607); experiment: Kinase inhibition IC50 assay (Eurofins); type: biochemical
T1 construct: purchased Eurofins Discovery Services (Dundee, United Kingdom)
Procedure: as §1
(§3) All data were analyzed by the GraphPad Prism 8.4.3 (GraphPad Software, California, United States), and was shown as mean value ±SD or SEM, details will be illustrated in the figure legends. Dose-effect curve analysis (IC50 calculation) was performed by the Graphpad Prism software. First, concentration value was converted to log value, followed by non-linear regression analyze which is log(inhibitor) vs. normalized response—Variable slope, was performed to calculate the IC50 values. The statistically significant p values were calculated by student’s t-test or two-way ANOVA and were shown in graphics which were labeled as follows: *p < 0.05; **p < 0.01; ***p < 0.001.

FGFR2 = target: T2, FGFR2 (Homo sapiens, UniProt P21802); experiment: Kinase inhibition IC50 assay (Eurofins); type: biochemical
T2 construct: purchased Eurofins Discovery Services (Dundee, United Kingdom)
Procedure: as §1, §3

FGFR4 = target: T3, FGFR4 (Homo sapiens, UniProt P22455); experiment: Kinase inhibition IC50 assay (Eurofins); type: biochemical
T3 construct: purchased Eurofins Discovery Services (Dundee, United Kingdom)
Procedure: as §1, §3

FGFR1 = target: T4, FGFR1 (Homo sapiens, UniProt P11362); experiment: Kinase inhibition IC50 assay (Eurofins); type: biochemical
T4 construct: purchased Eurofins Discovery Services (Dundee, United Kingdom)
Procedure: as §1, §3

SNU-16 xenograft = experiment: Subcutaneous xenograft model; type: in vivo, NOD/SCID mice
Procedure: NOD/SCID mice (6-week-old, weight 18–20 g, Beijing HJF bioscience) were used in this experiment and maintained in a specific-pathogen-free (SPF) condition facility. SNU-16 Cells were resuspended in PBS mixed with Matrigel (1:1) and adjust the density to 1×10^7 per mice (100 μL). The cell suspensions were inoculated subcutaneously on the right flank of the mice. When the mean tumor volume reached approximately 200 mm^3, the mice were divided into four groups (five mice each group): i. Vehicle group, ii. RK-019 15 mg/kg group, iii. RK-019 30 mg/kg group, and iv. RK-019 45 mg/kg group. RK-019 was dissolved in same formula as the in vivo PK study. RK-019 was administrated once per day by oral gavage for 21 days. Tumor volumes were measured three times per week. The tumor volume was measured by a caliper and calculated according to the following formula: Tumor volume=Major axis×Miner axis^2/2.
At the end of administration, the mice were executed euthanasia, then tumors, blood, and organs were extracted. The complete blood count (CBC), serum phosphorus analysis, and blood biochemical analysis were completed by West China Frontier Pharma Tech (Chengdu, China). The pathological section and IHC stanning was completed by Servicebio (Wuhan, China). The tumor growth inhibition (TGI) values were calculated with the following formula: TGI=(1−Tn−T0/Cn−C0)×100%.
Tn and T0 represent average tumor volume before treatment and that of day n after treatment in the treatment group. Cn and C0 represent average tumor volume before treatment and that of day n after treatment in the vehicle group. In this study, n is 21st day.

ROCK-II(r) = experiment: Kinase selectivity panel; type: biochemical, rat; conditions: read-out: Inhibition(%) @ 1 µM RK-019
Procedure: as §1

Rsk1(r) = target: T5, Rsk1(r) (Rattus norvegicus, UniProt Q63531); experiment: Kinase selectivity panel; type: biochemical; conditions: read-out: Inhibition(%) @ 1 µM RK-019
T5 construct: purchased Eurofins Discovery Services (KinaseProfiler)
T5 sequence (Q63531 whole entry): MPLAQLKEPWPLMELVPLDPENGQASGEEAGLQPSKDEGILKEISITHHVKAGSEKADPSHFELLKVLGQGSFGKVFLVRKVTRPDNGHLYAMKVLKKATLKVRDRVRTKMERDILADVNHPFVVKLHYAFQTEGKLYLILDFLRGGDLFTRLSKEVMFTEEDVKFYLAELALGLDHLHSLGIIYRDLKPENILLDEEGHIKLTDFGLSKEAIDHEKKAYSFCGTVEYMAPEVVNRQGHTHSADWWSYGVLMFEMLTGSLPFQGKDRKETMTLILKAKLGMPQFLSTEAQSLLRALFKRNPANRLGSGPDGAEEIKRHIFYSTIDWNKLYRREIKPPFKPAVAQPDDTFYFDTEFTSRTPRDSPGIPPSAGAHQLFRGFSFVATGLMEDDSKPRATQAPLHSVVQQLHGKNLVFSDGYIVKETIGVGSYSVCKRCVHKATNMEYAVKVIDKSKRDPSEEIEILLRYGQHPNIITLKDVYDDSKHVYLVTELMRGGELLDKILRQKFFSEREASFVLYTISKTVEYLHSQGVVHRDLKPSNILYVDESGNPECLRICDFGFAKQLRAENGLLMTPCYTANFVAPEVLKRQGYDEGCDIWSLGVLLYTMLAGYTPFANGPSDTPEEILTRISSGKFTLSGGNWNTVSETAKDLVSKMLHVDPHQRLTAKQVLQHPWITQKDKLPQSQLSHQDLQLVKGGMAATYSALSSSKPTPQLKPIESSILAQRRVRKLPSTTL

T4 sequence (P11362 22-822): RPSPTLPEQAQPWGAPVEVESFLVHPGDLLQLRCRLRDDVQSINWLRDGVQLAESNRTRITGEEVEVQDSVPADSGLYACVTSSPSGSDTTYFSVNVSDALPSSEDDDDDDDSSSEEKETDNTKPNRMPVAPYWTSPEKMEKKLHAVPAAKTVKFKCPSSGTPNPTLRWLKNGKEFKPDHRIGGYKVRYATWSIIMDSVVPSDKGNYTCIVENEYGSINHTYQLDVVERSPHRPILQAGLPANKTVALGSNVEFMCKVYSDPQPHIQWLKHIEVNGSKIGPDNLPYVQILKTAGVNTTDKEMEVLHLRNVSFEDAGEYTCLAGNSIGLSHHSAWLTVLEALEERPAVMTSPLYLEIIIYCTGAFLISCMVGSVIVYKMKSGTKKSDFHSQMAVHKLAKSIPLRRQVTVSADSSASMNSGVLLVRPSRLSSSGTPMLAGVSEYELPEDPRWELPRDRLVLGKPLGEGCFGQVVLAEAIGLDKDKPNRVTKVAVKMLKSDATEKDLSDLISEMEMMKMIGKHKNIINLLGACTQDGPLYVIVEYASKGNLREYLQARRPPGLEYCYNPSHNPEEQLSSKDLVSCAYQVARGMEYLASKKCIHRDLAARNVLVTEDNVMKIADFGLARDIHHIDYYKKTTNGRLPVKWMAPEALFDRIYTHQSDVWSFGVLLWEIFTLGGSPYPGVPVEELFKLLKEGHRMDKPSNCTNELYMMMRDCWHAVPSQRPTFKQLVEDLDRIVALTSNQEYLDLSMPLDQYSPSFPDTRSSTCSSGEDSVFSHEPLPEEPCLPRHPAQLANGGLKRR
T2 sequence (P21802 22-821): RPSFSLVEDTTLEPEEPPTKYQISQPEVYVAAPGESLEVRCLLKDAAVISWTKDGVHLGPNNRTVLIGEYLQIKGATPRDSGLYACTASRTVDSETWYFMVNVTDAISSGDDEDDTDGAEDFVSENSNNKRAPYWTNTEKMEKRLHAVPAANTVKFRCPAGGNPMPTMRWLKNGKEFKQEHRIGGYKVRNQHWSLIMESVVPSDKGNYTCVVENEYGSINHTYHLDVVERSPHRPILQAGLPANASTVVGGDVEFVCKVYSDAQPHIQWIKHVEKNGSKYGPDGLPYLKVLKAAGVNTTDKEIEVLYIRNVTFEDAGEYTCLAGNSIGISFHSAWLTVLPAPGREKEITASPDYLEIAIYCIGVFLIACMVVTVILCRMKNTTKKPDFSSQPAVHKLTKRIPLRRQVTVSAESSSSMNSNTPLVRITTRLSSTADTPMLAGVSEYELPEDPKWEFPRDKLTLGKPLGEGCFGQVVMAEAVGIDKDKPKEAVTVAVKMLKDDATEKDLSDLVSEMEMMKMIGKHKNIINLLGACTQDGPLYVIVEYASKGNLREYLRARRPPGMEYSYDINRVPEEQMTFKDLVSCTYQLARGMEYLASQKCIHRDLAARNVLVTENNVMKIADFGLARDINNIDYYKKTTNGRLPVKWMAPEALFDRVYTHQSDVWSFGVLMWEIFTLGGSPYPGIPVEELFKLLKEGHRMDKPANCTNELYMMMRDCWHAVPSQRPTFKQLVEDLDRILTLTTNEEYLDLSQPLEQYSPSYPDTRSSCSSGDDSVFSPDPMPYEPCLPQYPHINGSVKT
T1 sequence (P22607 23-806): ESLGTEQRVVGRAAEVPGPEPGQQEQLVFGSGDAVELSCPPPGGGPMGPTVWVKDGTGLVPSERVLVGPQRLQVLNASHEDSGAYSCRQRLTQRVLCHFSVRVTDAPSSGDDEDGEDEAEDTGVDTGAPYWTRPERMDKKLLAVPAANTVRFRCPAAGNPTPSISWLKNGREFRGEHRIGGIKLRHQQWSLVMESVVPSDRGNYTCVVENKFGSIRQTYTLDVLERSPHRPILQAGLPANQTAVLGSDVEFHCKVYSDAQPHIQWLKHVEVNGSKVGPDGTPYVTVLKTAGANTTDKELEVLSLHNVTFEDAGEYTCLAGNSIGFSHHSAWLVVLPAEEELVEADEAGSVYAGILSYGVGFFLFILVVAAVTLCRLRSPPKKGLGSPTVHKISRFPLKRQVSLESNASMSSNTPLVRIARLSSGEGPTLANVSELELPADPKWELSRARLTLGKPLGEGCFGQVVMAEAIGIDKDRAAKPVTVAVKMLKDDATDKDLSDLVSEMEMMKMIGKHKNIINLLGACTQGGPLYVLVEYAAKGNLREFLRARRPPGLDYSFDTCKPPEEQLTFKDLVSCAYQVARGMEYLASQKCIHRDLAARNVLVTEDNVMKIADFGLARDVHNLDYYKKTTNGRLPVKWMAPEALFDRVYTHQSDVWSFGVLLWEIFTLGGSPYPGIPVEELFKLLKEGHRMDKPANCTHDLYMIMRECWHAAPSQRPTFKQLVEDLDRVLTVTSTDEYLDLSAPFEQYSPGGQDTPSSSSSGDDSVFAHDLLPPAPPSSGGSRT
T3 sequence (P22455 22-802): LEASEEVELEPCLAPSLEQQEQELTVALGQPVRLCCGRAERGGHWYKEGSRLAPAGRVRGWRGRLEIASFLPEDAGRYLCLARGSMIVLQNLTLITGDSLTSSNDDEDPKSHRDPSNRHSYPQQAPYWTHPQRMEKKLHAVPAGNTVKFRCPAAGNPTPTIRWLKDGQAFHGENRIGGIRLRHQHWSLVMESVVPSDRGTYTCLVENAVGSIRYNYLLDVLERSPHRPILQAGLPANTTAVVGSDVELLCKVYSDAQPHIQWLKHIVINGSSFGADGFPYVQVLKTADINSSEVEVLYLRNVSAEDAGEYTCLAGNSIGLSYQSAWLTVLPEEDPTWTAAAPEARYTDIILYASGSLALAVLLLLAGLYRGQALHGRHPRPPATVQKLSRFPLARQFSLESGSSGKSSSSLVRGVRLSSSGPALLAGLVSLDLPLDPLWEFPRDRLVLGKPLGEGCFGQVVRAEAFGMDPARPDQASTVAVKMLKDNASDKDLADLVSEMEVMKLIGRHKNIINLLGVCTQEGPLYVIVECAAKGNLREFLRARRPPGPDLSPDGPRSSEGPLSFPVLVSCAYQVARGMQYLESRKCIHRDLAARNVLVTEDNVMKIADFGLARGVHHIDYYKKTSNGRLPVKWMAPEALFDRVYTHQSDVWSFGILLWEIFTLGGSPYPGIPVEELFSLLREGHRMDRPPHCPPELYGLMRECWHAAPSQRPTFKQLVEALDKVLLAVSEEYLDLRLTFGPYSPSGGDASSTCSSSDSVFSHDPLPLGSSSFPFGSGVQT

What does the source list for `COc1cc(OC)cc(N(CCN[C@H](C)CO)c2ccc3ncc(-c4cnn(C)c4)c(=O)n3c2)c1` [RK-019, (R)-7-((3,5-dimethoxyphenyl) (2-((1-hydroxypropan-2-yl)amino)ethyl)amino)-3-(1-methyl-1H-pyrazol-4-yl)-4H-pyrido [1,2-a]pyrimidin-4-one]?
activity (CK1(y)): 94%; population of apoptotic cells (early and late apoptotic cells) (KATO III cells): 32.7%; population of apoptotic cells (early and late apoptotic cells) (SNU-16 cells): 45.5%; IC50 (FGFR3): 26.3 nM; IC50 (FGFR2): 4.6 nM; IC50 (FGFR4): 40.7 nM; IC50 (FGFR1): 8.9 nM and 9.1 nM; TGI (SNU-16 xenograft; 15 mg/kg oral once a day, 21 days): 34.3%; TGI (SNU-16 xenograft; 30 mg/kg oral once a day, 21 days): 85.9%; TGI (SNU-16 xenograft; 45 mg/kg oral once a day, 21 days): 83.5%; tumor weight (SNU-16 xenograft; RK-019-treated group vs vehicle group, 21 days): significant decrease; number of cleaved-caspase 3-positive cells (IHC of tumor tissue) (SNU-16 xenograft; after 21 days treatment): increased significantly; number of p-FGFR2-positive and Ki67-positive cells (IHC of tumor tissue) (SNU-16 xenograft; after 21 days treatment): decreased; activity (ROCK-II(r)): 91%; activity at 1 µM (Rsk1(r)): 96%
